The text below walks through data of ChEMBL document CHEMBL1128868, “A carotane sesquiterpene as a potent modulator of the Maxi-K channel from Arthrinium phaesospermum” (Bioorg Med Chem Lett, 1995).

Active and inactive are the calls of the source. The rule behind the calls is not given here.

One assay is filed under the species Bos taurus. The experiment in a line: Inhibition of [125I]ChTX binding to Maxi-K channels in bovine aortic sarcolemmal membranes. Particulars: Aorta. The class given is cell membranes.
Assay [1] has as its target Potassium voltage-gated channel subfamily A member 3 (Rattus norvegicus) (UniProt P15384). The experiment in a line: Inhibition of [125I]ChTX binding to voltage-gated potassium channel in rat brain synaptic plasma membranes; No effect. Particulars: Membrane. The class given is cell membranes.

Potassium voltage-gated channel subfamily A member 3 (Rattus norvegicus), sequence (P15384 whole entry): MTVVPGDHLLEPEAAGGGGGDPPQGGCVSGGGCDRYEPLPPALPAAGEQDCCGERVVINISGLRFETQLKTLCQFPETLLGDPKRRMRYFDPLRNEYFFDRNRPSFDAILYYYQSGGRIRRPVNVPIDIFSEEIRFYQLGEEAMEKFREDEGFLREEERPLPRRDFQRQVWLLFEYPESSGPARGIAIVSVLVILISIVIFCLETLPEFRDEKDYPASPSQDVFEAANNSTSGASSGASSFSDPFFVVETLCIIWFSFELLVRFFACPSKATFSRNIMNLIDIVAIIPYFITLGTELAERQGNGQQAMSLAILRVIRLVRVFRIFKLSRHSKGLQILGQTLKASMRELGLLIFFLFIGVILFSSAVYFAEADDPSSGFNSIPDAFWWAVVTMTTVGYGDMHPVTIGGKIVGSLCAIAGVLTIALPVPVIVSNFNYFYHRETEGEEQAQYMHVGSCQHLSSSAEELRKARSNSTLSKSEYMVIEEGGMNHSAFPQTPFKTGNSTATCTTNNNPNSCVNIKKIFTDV

In the assay filed under Bos taurus, `CC1=CC[C@@]2(C)C[C@H](O)[C@@](O)(C(C)C)[C@@H]2CC1` came in with an inhibition of 200 nM. Moreover, the inhibition result in assay [1] is “inactive”.
